Laboratory results as given in PMC9970268 (Cancer Research Communications, 2022).
Where two headings read alike, the source gives them in different places.

Legend:
GFP-HER2-BM cells [1] = experiment: Cell viability (MTT) assay; format: cell-based, human
Description: (§1) Using CellTiter 96 Non-Radioactive Cell Proliferation Assay (Promega, Corp.) according to manufactures’ instructions, formazan was used as an indicator of viable cells at an absorbance 570 nm in a Tecan Microplate Reader M100 (Tecan). Data were calculated as fold change from vehicle and transformed to logarithm base 10. 0 concentration was replaced with 1 nmol/L to fit using the 4-parameter logic nonlinear regression model in GraphPad Prism software. (n = 3 biologic replicates: with three technical replicates each).
(§2) All half maximal growth inhibitory concentration (GI50) values were determined by using the 4-parameter logistic curve model in GraphPad Prism 9 software. Statistical analyses were done also using GraphPad Prism 9 software, and differences were considered statistically significant at P ≤ 0.05 using ordinary one-way ANOVA or unpaired Student t test with Dunnet multiple comparison tests.

MDA-MB-468 cells [2] = experiment: Apoptosis assay (Caspase-Glo3/7); format: cell-based, human; settings: 500 nmol/L, 48 hours
Description: (§3) Apoptosis was measured using a Caspase-Glo3/7 Luminescence Assay Kit as per manufacturer's instructions (Promega, Corp.), as described previously ([23]). Briefly, Caspase-3/7 Glo reagent was added and incubated at room temperature for 60 minutes and caspase-3/7 activities were determined by detecting luminescence using Tecan Microplate Reader M100 (Tecan). Data were calculated as fold change from vehicle. (n = 3 biologic replicates: with three technical replicates each).

GFP-HER2-BM cells [3] = experiment: Apoptosis assay (Caspase-Glo3/7); format: cell-based, human; settings: 500 nmol/L, 48 hours
Description: as §3

CYP2C9 = target: T1, CYP2C9 (Homo sapiens, UniProt P11712); experiment: CyP450 enzyme assay (P450-Glo); format: in vitro ADME; settings: recombinant human CYP enzyme, 0.001–100 μmol/L
T1 construct: purchased Promega
T1 sequence (P11712 whole entry): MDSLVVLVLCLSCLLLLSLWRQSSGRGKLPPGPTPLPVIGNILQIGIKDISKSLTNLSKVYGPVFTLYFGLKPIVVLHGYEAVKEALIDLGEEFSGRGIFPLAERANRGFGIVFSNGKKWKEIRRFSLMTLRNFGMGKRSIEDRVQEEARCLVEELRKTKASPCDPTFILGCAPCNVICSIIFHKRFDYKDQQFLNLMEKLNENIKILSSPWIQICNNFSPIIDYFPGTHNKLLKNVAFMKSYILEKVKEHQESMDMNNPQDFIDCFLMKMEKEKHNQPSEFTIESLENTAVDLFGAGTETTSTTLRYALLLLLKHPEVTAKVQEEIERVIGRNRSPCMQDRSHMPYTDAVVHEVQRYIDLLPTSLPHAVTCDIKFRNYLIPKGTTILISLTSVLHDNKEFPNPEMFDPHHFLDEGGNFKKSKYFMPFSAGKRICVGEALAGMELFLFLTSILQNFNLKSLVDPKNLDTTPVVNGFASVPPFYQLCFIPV
Description: (§4) The assay was carried out using P450-Glo Screening System (Promega). The system contained recombinant human CYP enzyme and P450 reductase (and cytochrome b5 for CYP2C9, 2C19, and 3A4), luminogenic substrates appropriate for each CYP enzyme, a NADPH regeneration system (containing NADP+), and luciferin detection reagent. […] These compounds and organic solvents acetonitrile, and DMSO were purchased from Sigma-Aldrich.
(§5) First, 12.5 μL of the 4X stock solution of test compounds or positive controls (appropriate for each enzyme) were added to the “treated” wells. For the “untreated” (the values from these wells represent total CYP activity) and “minus-P450 control” wells (the values from these wells represent the CYP-independent background luminescence of the assay), 12.5 μL of vehicle was added. Then, 12.5 μL of the 4X control reaction mixture (containing membrane preparations devoid of CYP enzymes, the appropriate luminogenic substrate, and potassium phosphate buffer) were added to the minus-P450 control wells, and 12.5 μL of the 4X reaction mixture (containing human CYP membrane preparations, the appropriate luminogenic substrate, and potassium phosphate buffer) were added to all other wells. The plates were preincubated at room temperature for 10 minutes with the reaction mixture (membrane with enzyme, substrate, and 1 mol/L potassium phosphate buffer), and then 2X NADPH regeneration system was added to initiate the reaction. After incubation at room temperature for 30 minutes, 50 μL of the Luciferin Detection Reagent was added to stop the reaction and generate the luminescent signal. Before reading, the plate was incubated at room temperature for 20 minutes to stabilize the luminescent signal. The luminescence was measured using an Infinite F200 plate reader (Tecan). […] The percentage of CYP enzyme activity versus log concentration of test compounds were plotted to calculate the IC50 values.

CYP3A4 = target: T2, CYP3A4 (Homo sapiens, UniProt P08684); experiment: CyP450 enzyme assay (P450-Glo); format: in vitro ADME; settings: recombinant human CYP enzyme, 0.001–100 μmol/L
T2 construct: purchased Promega
T2 sequence (P08684 whole entry): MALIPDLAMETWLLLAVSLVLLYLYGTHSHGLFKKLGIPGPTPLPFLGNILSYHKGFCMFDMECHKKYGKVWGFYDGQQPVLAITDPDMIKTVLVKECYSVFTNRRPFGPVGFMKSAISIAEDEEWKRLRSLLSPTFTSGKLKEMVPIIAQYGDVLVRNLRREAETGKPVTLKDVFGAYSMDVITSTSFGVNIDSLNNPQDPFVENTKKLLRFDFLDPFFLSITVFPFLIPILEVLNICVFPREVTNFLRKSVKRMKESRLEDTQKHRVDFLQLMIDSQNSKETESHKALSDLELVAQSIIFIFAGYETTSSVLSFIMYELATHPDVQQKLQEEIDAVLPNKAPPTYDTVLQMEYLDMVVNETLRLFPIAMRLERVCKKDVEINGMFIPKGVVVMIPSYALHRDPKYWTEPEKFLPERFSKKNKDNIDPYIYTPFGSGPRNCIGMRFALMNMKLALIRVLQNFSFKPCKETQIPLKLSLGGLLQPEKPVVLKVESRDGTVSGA
Description: as §4, §5

CYP2C19 = target: T3, CYP2C19 (Homo sapiens, UniProt P33261); experiment: CyP450 enzyme assay (P450-Glo); format: in vitro ADME
T3 construct: purchased Promega
T3 sequence (P33261 whole entry): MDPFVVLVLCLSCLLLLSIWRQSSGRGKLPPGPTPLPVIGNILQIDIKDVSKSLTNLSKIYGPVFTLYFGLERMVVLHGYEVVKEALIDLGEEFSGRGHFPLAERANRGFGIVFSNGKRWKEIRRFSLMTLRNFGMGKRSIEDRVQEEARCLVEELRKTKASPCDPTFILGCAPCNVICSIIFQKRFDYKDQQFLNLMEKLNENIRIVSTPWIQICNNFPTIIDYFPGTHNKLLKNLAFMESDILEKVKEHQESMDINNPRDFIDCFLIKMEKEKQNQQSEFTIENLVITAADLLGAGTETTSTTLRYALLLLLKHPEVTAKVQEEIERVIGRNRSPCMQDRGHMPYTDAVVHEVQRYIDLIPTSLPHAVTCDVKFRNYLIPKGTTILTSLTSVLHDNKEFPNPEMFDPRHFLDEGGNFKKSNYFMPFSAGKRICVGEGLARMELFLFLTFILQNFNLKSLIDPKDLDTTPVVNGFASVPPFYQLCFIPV
Description: as §4, §5

MDA-MB-231 cells [4] = experiment: Wound healing assay; format: cell-based, human; settings: 250 nmol/L; 12 and 24 hours
Description: MDA-MB-231 cells were plated on 12-well plates at equal cell density until confluent. Then the media was changed to 1% FBS, and a single scratch was made in the center of the monolayer culture with a pipet tip. Compounds were added immediately at 250 or 500 nmol/L and images were digitally acquired from a Keyence microscope (10×) at 0, 12, and 24 hours. The scratch area was quantified in ImageJ using the Macro Wound Healing Tool (http://dev.mri.cnrs.fr/projects/imagej-macros/wiki/Wound_Healing_Tool; n = 3 biologic replicates: with three technical replicates each).

[5] = tested on: GFP-HER2-BM, MDA-MB-231, and MDA-MB-468 cancer cell lines; experiment: Cell viability (MTT) assay, three cancer cell lines together; format: cell-based, human
Description: as §1

Rac1 [6] = tested on: Rac1; design: method as in PMID 15128949; settings: inhibits Rac1 binding and activation by the GEFs Trio and Tiam1; cited from earlier work
Rac1B splice variant = Rac1B splice variant (Homo sapiens, UniProt P63000); experiment: Rac1B activation pulldown assay in MDA-MB-468 cells; settings: MDA-MB-468, read-out: inhibition of Rac1B activation, MDA-MB-468, 500 nmol/L, 24 hours
MDA-MB-231 cells [7] = experiment: Cell viability (MTT) assay; format: cell-based, human
Description: as §1, §2

MCF10A cells = experiment: Cell viability (MTT) assay; format: cell-based, human
Description: as §1, §2

MCF7 breast cancer cells = experiment: Cell viability (MTT) assay; format: cell-based, human; settings: 250 nmol/L, 120 hr
Description: as §1
Supplementary Figure S1. Percentage cell viability of MDA-MB-231, GFP-HER2-BM, […]
nM for 120 hr. The bar graphs are presented as individual fold change data points from vehicle and grouped mean ± SEM. (n = 3; *, P < 0.05; ** P < 0.01).
(1 picture or pasted object on this page, not shown here)

A549 lung cancer cells = experiment: EGF-induced ruffle formation; format: cell-based, human; settings: 24 hours, then EGF 200 ng/mL
Description: Cells were fixed with 4% formaldehyde and F-actin stained with rhodamine phalloidin. Slides were visualized by fluorescence microscopy and five random fields were scored for the number of ruffles. Ruffle area was measured by thresholding for single intensity using ImageJ/Fiji software, as in ref. [29].

Rac1 [8] = target: Rac1 (Homo sapiens, UniProt P63000); experiment: Rac activation pulldown assay in MDA-MB-231 cells; settings: MDA-MB-231, read-out: inhibition of Rac1 activity, MDA-MB-231, 250 nmol/L, 24 hours
MDA-MB-231 cells [9] = experiment: Apoptosis assay (Caspase-Glo3/7); format: cell-based, human; settings: 500 nmol/L, 48 hours
Description: as §3

[10] = target: T4, Rac1(G15A) interaction with Vav2 (Homo sapiens, UniProt P63000, G15A); experiment: Rac1 (G15A) pulldown assay, Vav2; format: binding; settings: for potency relative to EHop-016 (parent compound): Vav/Rac inhibitor
T4 construct: purchased Cell Biolabs; host or cells: GEF from MDA-MB-231 lysate
Description: MDA-MB-231 cells were lysed in 1% Triton X-100, 20 mmol/L HEPES, pH 7.4, 150 mmol/L NaCl, 5 mmol/L MgCl2, and protease inhibitors, and processed as described previously ([20]). Equal amounts of protein from cleared lysates were incubated for 1 hour at 4°C with glutathione-agarose beads conjugated to GST-Rac1 and GST-Cdc42(G15A) nucleotide-free mutant (Cell Biolabs) that were preincubated (for 1 hour) with vehicle or Rac/Cdc42 inhibitors, as indicated. The beads were washed, and pulldowns were immunoblotted for Vav2 or Ect2.

HMEC cells = experiment: Cell viability (MTT) assay; format: cell-based, human; settings: 120 hours, 0 to 1,000 nmol/L
Description: as §1

MDA-MB-468 cells [11] = experiment: Cell viability (MTT) assay; format: cell-based, human; settings: 500 nmol/L, 72 hours
Description: as §1

MDA-MB-231 cells [12] = experiment: Phalloidin staining of F-actin, cell phenotype; format: cell-based, human; settings: 250 nmol/L, 12 hours
Source text: Cells were fixed, permeabilized, and stained with rhodamine phalloidin to visualize F-actin as described previously ([23]). Fluorescence micrographs were acquired at 40× in a Keyence fluorescence microscope.

[13] = tested on: MDA-MB-231, GFP-HER2-BM, and MDA-MB-468 cells; experiment: Apoptosis assay (Caspase-Glo3/7), cell line not specified; format: cell-based, human; settings: 500 nmol/L, 48 hours
Description: as §3

Rac = settings: cited from earlier work
Cdc42 = tested on: Cdc42; design: method as in PMID 23382385; settings: read-out: IC50, Cdc42 selective inhibitor; cited from earlier work

## CCn1c2ccccc2c2cc(-n3nnc(C(O)c4cccnc4)c3-c3ccccc3)ccc21 (stereo not drawn) [EHop-040]
GFP-HER2-BM cells [1]; 500 nmol/L, 72 hours
  inhibition of cell viability: 80%
MDA-MB-468 cells [2]
  Caspase-3/7 activity: significantly increased Caspase-3/7 activity
GFP-HER2-BM cells [3]
  Caspase-3/7 activity: significantly increased Caspase-3/7 activity

## CCn1c2ccccc2c2cc(-n3nncc3-c3cccc(C)c3)ccc21 [MBQ-169]
GFP-HER2-BM cells [1]; 500 nmol/L, 72 hours
  inhibition of cell viability: approximately 75%
GFP-HER2-BM cells [3]
  Caspase-3/7 activity: significantly increased Caspase-3/7 activity
CYP2C9
  IC50: 870 nM
CYP3A4
  IC50: 3310 nM
CYP2C19
  CYP2C19 IC50, fold lower than the IC50 for the positive control: approximately 6 fold
CYP2C19; human, recombinant human CYP enzyme, 0.001–100 μmol/L
  IC50 at 30 min: 580 nM

## CCn1c2ccccc2c2cc(-n3nncc3-c3ccccn3)ccc21 [MBQ-170]
MDA-MB-231 cells [4]
  wound closure: wound was closed in 24 hours
[5]
  effect on viability of cancer cells: did not affect the viability of cancer cells

## CCn1c2ccccc2c2cc(-n3nnc(C(O)c4cccc(OC)c4)c3-c3ccccc3)ccc21 (stereo not drawn) [EHop-097]
Rac1B splice variant
  inhibition at 0.5 µM: ~60%
MDA-MB-231 cells [4]
  wound closure: wound area was maintained at 12 and 24 hours
MDA-MB-231 cells [7]; 250 nmol/L, 120 hr
  inhibition of cell viability: not effective
MDA-MB-231 cells [7]; 500 nmol/L, 72 hours
  inhibition of cell viability: 50%
MDA-MB-231 cells [7]; Homo sapiens, MDA-MB-231, 120 hours, 0 to 1,000 nmol/L
  GI50: 327 nM
MCF10A cells; 250 nmol/L, 120 hr
  inhibition of cell viability: not effective
MCF10A cells; Homo sapiens, MCF-10A, 120 hours, 0 to 1,000 nmol/L
  GI50: 335 nM
GFP-HER2-BM cells [1]; 250 nmol/L, 120 hr
  inhibition of cell viability: approximately 60%
GFP-HER2-BM cells [1]; 500 nmol/L, 72 hours
  inhibition of cell viability: 80%
GFP-HER2-BM cells [1]; Homo sapiens, 120 hours, 0 to 1,000 nmol/L
  GI50: 261 nM
MCF7 breast cancer cells
  inhibition of cell viability: not effective
A549 lung cancer cells; 500 nmol/L
  loss in ruffles: 33%
A549 lung cancer cells; 1,000 nmol/L
  decrease in ruffles: 58%
Rac1 [8]
  inhibition at 0.25 µM: ~85%
MDA-MB-231 cells [9]
  Caspase-3/7 activity: significantly increased Caspase-3/7 activity
GFP-HER2-BM cells [3]
  Caspase-3/7 activity: significantly increased Caspase-3/7 activity
[10]; 250 nmol/L, 1 hour preincubation, MDA-MB-231 cell lysates
  Rac1(G15A) interaction with Vav2: blocked the interaction
[10]; EHop-097 at 250 nmol/L
  efficacy compared with EHop-016 at 8 μmol/L: 4 X
[10]
  potency relative to EHop-016 (parent compound): 10–30 ×
[10]; listed as Ehop-097
  potency relative to EHop-016 (parent compound): 10 ×
HMEC cells
  effect on viability of HMECs: did not affect the viability of HMECs
MDA-MB-468 cells [11]
  inhibition of cell viability: nonstatistically significant trend
MDA-MB-231 cells [12]
  cell phenotype, actin cytoskeleton: smaller and less spread but did not have the characteristic loss of polarity
[13]
  caspase-3/7 activity compared with the vehicle: three to five times

## CCn1c2ccccc2c2cc(-n3nnc(C(O)c4ccco4)c3-c3ccccc3)ccc21 (stereo not drawn) [EHop-098]
GFP-HER2-BM cells [1]; 500 nmol/L, 72 hours
  inhibition of cell viability: 80%

## O=c1cc(CN2CCOCC2)occ1OCCCCCSc1ccnc2cc(C(F)(F)F)ccc12 [EHT1864]
Rac
  IC50: > 10000 nM

## COc1ccc(C2=NN(c3ccc(S(N)(=O)=O)cc3)C(c3ccccc3)C2)cc1 (stereo not drawn) [ML141]
Cdc42
  IC50: 3000 to 5000 nM

## O=C(C#Cc1ccccc1)c1cccc([N+](=O)[O-])c1 [MLS000532223]
Rac
  IC50: > 10000 nM

## CCn1c2ccccc2c2cc(-n3nncc3-c3cccnc3)ccc21 [MBQ-171]
GFP-HER2-BM cells [1]; 500 nmol/L, 72 hours
  inhibition of cell viability: approximately 75%
CYP2C9
  IC50: 1550 nM
CYP3A4
  IC50: 8040 nM
CYP2C19; recombinant human CYP enzyme, 0.001–100 μmol/L
  IC50: 12400 nM

## CCn1c2ccccc2c2cc(Nc3ccnc(NCCCN4CCOCC4)n3)ccc21 [EHop-016]
Rac; blocking the interaction of Rac with the GEF Vav
  IC50: 1100 nM
